# Results reported in patent publication US20170184604A1, “DD1ALPHA RECEPTOR AND USES THEREOF IN IMMUNE DISORDERS” (THE GENERAL HOSPITAL CORPORATION, priority 2014, published 2017).
# Columns and labels:
# DD1α = experiment: Ig fusion protein-pull down assay; type: binding, human
# Method: FIGS. 6A-6E show physical association of DD1α with PD1 but not with PD-L1. (FIG. 6A) Interaction of DD1α with PD1 or DD1α. […] The bound Ig fusion proteins were detected with anti-Ig-APC. Empty vector (pcDNA3.1)-transfected cells stained with Ig proteins are shown as a negative control (gray filled) and other staining is shown as black open. (FIG. 6B) DD1α binds to both DD1α and PD1 on CD4+ T cells. Purified CD4+ T cells from Wt and DD1α−/− mice were assayed for binding to Ig fused DD1α or PD1 proteins. Cells were incubated with DD1α-Ig (open), PD1-Ig (open), or control Ig proteins (gray filled) and the bound Ig fusion proteins were detected by anti-Ig-APC. […] The bound Ig fusion proteins were detected by anti-Ig-APC. Binding amounts were determined by percentage of APC positive cells compared to control Ig protein-bound cells. (FIG. 6C) Ig-pulldown experiments show DD1α interaction with both DD1α and PD1. […] The bead bound proteins were eluted and determined by western blot analysis using anti-HA antibody (asterisks). (FIG. 6D) Ig fusion proteins (control Ig, DD1α-Ig, or PD1-Ig) were incubated with lysates from Nutlin-3-treated MCF7 cells and pulled down using protein A/G agarose. The bead bound proteins were eluted and detected by western blot analysis with anti-DD1α or anti-PD1 antibody (asterisk). (FIG. 6E) p53-mediated induction of PD1 and PD-L1. MCF7 cells were treated by Nutlin-3 (10 μM) for 1 to 3 days. MCF7 cells were transfected with control siRNA or p53 siRNA for 24 hours and treated with CPT (500 nM) or DMSO (control) for 1 and 2 days. The levels of indicated proteins were analyzed by western blot analysis. Total RNAs from control siRNA or p53 siRNA transfected MCF7 cells were assessed for mRNA levels of PD1 or PD-L1 by real-time quantitative PCR. PD1 or PD-L1 mRNA levels were normalized to 36B4 expression and shown as mean±SD (n=3). Protein levels of PD1 and PD-L1 were examined in EJ-p53tet cells in the absence or presence of tetracycline (tet), ZR75-1 cells treated with CPT (500 nM), or A375 cells exposed to 13 Gy ionizing irradiation for the indicated times.
# Ig fusion proteins (control Ig, DD1α-Ig, or PD1-Ig) were incubated with lysates from Nutlin-3-treated MCF7 cells and pulled down using proten A/G agarose. The bead bound proteins were eluted and detected by western blot analysis with anti-DD1α or anti-PD1 antibody.
# Based on the results that both PD-1 and DD1α receptors on T cells contribute to the co-inhibitory roles for DD1α(FIG. 5), it was tested whether DD1α could physically and functionally associate with PD-1 receptor. […] To confirm the specificity of this interaction, the inventors carried out Ig fusion protein-pull down assays using lysates from PD-1, DD1α, or TIM3-transfected 293T cells. […]
# naïve CD4+CD62L+ T cells = experiment: iTreg cell development assay; type: cell-based, mouse; settings: for frequency of Foxp3+CD4+ T cells (iTreg): anti-CD3 and anti-CD28
# Method: Enriched human CD4+ T cells and CD8+ T cells were stained with CFSE (1 μM) and stimulated with plate-bound anti-CD3 antibody (3 μg/ml) together with 2, 5, or 10 μg/ml of DD1α-Ig proteins or control Ig proteins. The proliferations of CD4+ T or CD8+ T cells were determined by the percentages of CFSE-labeled CD4+ T or CD8+ T cells at the 72-hour culture. The levels of cytokines IFN-γ and TNF-α in culture supernatant were analyzed by ELISA at the 48-hour culture. […] The proliferation and cytokine production of CD4+ T cells were determined as FIG. 5A. […] The proliferations of CD4+ T cells were determined by percentage of CFSE-diluted CD4+ cells on day 3. The levels of cytokines IFN-γ and IL-2 in culture supernatant were analyzed by ELISA on day 2. […] Data are shown as mean±SD and representative of three experiments.
# The cell culture plates were coated with anti-CD3 (145-2C11, eBioscience) together with mDD1α-Ig, mPD-L1-Ig or control Ig proteins. CD4+CD62L+naïve T cells were purified from splenocytes freshly isolated from Wt mice using CD4+CD62L+ T Cell Isolation Kit II (Miltenyi Biotec) and cultured in complete RPMI-1640 media added by anti-CD28 (37.51, eBioscience) and TGF-β (BioLegend) on the anti-CD3 & Ig proteins-coated plates. On day 3, cells were stained with anti-CD4-APC (RM4-5, eBioscience) and anti-mouse Foxp3-PE (FJK-16s, eBioscience) and analyzed for Foxp3 expression on CD4+ T cells by flow cytometry.
# [1] = tested on: Jurkat cells expressing DD1α receptor; experiment: Ig fusion protein binding to Jurkat cells; settings: several concentrations; anti-Ig-APC detection
# Method: Jurkat cells overexpressing DD1alpha (transfected with DD1alpha cDNA) or control Jurkat cells were assayed for binding to Ig-fused DD1α or PD-1 proteins. Cells were incubated with several different concentrations of DD1α-Ig (left panels) or PD1-Ig (right panels), and the bound Ig fusion proteins were detected by anti-Ig-APC. Binding amounts were determined by percentage of APC positive cells.
# DD1α, sequence (Q9H7M9 33-311): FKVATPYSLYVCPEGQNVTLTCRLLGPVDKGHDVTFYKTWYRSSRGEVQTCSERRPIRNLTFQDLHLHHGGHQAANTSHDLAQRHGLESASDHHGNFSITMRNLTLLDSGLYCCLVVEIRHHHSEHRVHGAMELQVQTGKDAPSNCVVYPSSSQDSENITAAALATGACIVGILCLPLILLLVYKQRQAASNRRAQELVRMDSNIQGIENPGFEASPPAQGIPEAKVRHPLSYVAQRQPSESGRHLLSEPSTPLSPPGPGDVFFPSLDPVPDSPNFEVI
substance,measurement,setting,value
DD1α-Ig: the extracellular region of DD1α fused with the immunoglobulin G Fc segment,pull down of DD1α,DD1α; lysates from transfected 293T cells,pulled down
same,pull down of endogenous DD1α receptor,DD1α; lysates of Nutlin-3-treated MCF7 cells,detected
same,iTreg cell generation,naïve CD4+CD62L+ T cells; alone without TGF-β,did not affect
same,frequency of Foxp3+CD4+ T cells (iTreg),"naïve CD4+CD62L+ T cells; 1 ng/ml TGF-β, control Ig 14.2%",31.4%
same,frequency of Foxp3+CD4+ T cells (iTreg),"naïve CD4+CD62L+ T cells; 2 ng/ml TGF, control Ig 32.6%",51.7%
same,iTreg cell development,naïve CD4+CD62L+ T cells; in the presence of TGF-β,significantly enhanced
same,binding to Jurkat cells expressing DD1α receptor,[1],bind
